The test system of the experiment is Plasmodium falciparum. Kind of experiment: Antiplasmodial activity against Plasmodium falciparum 3D7 late ring stages and early trophozoites forms infected in human erythrocytes assessed as parasite growth inhibition by LDH release assay. In kind it is functional, organism-based. In general terms: LDH leaks from cells whose membrane has failed.

SMILES strings stand for the structures.

What is called IC50 is the concentration needed to halve the response being measured. As to `CCCCCCCCCCC/C=C(\C)C(=O)C(C)(C)C(=O)OC[C@@H](O)COCC[C@@H](C(=O)[O-])[N+](C)(C)C`, the half-inhibitory concentration (IC50) was 7 µM.

The values are drawn from ChEMBL document CHEMBL3352318, “MDN-0104, an antiplasmodial betaine lipid from Heterospora chenopodii” (J Nat Prod, 2014).
